Here are results for one molecule from article PMC10449621, “Engineering cellular communication between light-activated synthetic cells and bacteria” (Nature Chemical Biology, 2023).

“And” between values parts separate entries of the source, which are not always exact repeats. Identical values can stand only once.

The subject of the assay is BjaRS107R (B0034|CTG) receiver cells. As to the kind of experiment: IV-HSL biosynthesis by BjaI in bulk CFPS reactions, quantified with receiver cells. The format is cell-based, E. coli XL10-Gold. As to conditions: 10 nM. The procedure:
We first validated bjaI expression using bulk CFPS reactions containing (^35S)-methionine to visualize the newly synthesized protein. The full-length BjaI protein (25 kDa) was successfully translated, and its expression was not influenced by the presence of SAM and IV-CoA (Fig. 4b). To establish whether the BjaI was enzymatically active, CFPS reactions containing 80 µM IV-CoA and 300 µM SAM were incubated at 37 °C for 5 h, and then serially diluted and incubated with BjaRS107R (B0034|CTG) receiver cells. Indeed, IV-HSL was successfully synthesized within the CFPS reactions as the reaction mixture containing the complete set of components (bjaI DNA + SAM + IV-CoA) fully activated gfp expression in the receivers, while no fluorescence output was observed from CFPS reactions containing SAM and IV-CoA, but without bjaI DNA template (Fig. 4c,d). […] Similarly, on transferring this system inside GUVs, BjaI-producing synthetic cells also synthesized sufficient IV-HSL to fully activate gfp expression in BjaRS107R (B0033|ATG) receiver cells. […] The loss in specific activity between CFPS performed in bulk compared to inside GUVs was attributed to the loss of inner solution during emulsion phase transfer and when the GUVs ruptured, less efficient CFPS in GUVs compared to in bulk, and absence of gene expression in some GUVs.
In total, 3 µl CFPS reactions were prepared using PURExpress with 0.8 U µl^−1 murine RNase inhibitor, 5 ng µl^−1 linear bjaI DNA template and 300 µM SAM and 80 µM IV-CoA, as indicated. Reactions were incubated for 5 h at 37 °C using a thermal cycler and then serially diluted in Milli-Q H2O. In total, 1 µl of the samples was added to lidded Corning 96-well plates containing 200 µl BjaI receiver cells (pSB1A3 BjaRS107R (CTG) at OD600 = 0.05). Cells were grown at 37 °C, 800 r.p.m. in a thermomixer with a heated lid for 4 h. OD600 and fluorescence were measured using a Tecan infinite M1000 plate reader (Ex, 488 nm; Em, 510 nm; bandwidth, 5 nm; z position, 23,179 µm and gain, 101).

On to `CC(C)CC(=O)N[C@H]1CCOC1=O` [IV-HSL, N-isovaleryl-L-homoserine lactone], for which the GFP is 45669 and 34133 and 41279; the Mean normalised fluorescence is 170055; the Normalised fluorescence is 160035 and 169389 and 180741.
